Experimental data from patent US20040009189A1, “Antimutagenic effects of ganoderma lucidum spores” (priority 2002, published 2004).
Like-named read-outs stand apart in the source and are kept apart here. Marks after values point to notes of the source that are not given here.

Columns and labels:
[1] = Weight gain of the pregnant rats (embryotoxicity/teratogenicity study); assay type: in vivo; conditions: days 10-12 of pregnancy
Description: (§1) To test the embryotoxicity and teratogenic effects of GASP, a rat model was used.
(§2) Healthy SD rats weighing between 200-250 g were selected and housed together overnight at a 2:1 ratio of females to males. Beginning on the next day, vaginal smears were examined each morning, and the date when sperm was found was considered day 0 of pregnancy.
(§3) The pregnant rats were randomly divided into 5 groups, 18 rats per group. […] The human clinical dose was four capsules per dose (each capsule containing 0.3 g of the GSAP), four times daily. The study was designed so that the low dose group was 428.6 mg/kg, medium dose group was 2143 mg/kg, and the high dose group was 4286 mg/kg (equivalent to 1, 5, and 10 times the human clinical dose, respectively, when calculated according to the respective body surface areas of the rat and human). During the 6-15 days of the pregnancy, the GASP was orally administered to the rats in the dosage groups at a volume of 1.5 ml/100 g through gavage. The positive control group was given aspirin (250 mg/kg) on days 10-12 of the pregnancy, at the volume of 1.0 ml/100 g orally by means of a stomach tube, while the negative control group was given the equivalent amount of distilled water orally through gavage.
All the pregnant rats were weighed once every 3 days, so as to adjust the dosage. […]

[2] = test system: fetal rats; assay: Effects on early embryo development in pregnant rats; assay type: in vivo; conditions: aspirin 250 mg/kg oral, days 10-12 of pregnancy; 14 pregnant rats
Description: as §1, §2, §3
All the pregnant rats were weighed once every 3 days, so as to adjust the dosage. On the day 20 of the pregnancy, the animals were sacrificed by dislocating the vertebra, and a cesarean was performed to obtain the fetal rats in order to check various indexes and for statistical analysis.

[3] = test system: fetal rats; assay: Effects on fetal rat organogenesis (Bouins fixation, sectioning); design: species or system Sprague Dawley (SD) rats; conditions: female, Sprague-Dawley, in vivo
Description: Approximately ⅓ of the fetal rats were removed per litter, fixed with Bouins solution and then manually sectioned, with the various internal organs being then observed under the dissecting microscope.

[4] = test system: mice bone marrow cell chromosomal aberration induced by cyclophosphamide; conditions: 500 cells
Description: The test used was the modified mice bone marrow cell micronucleus test as specified in “A Notice Concerning Issuance of the Revised Items of the ‘Health Food Functional Assessment Procedures and Testing Methods’,” a document from the Ministry of Public Health of the People's Republic of China, which is hereby incorporated by reference.
The mice were randomly divided by weight into 9 groups, 5 males and 5 females respectively per group. Animals in each group were given the following treatment:
The drug was prepared as a suspension of the required concentration in distilled water, and administered orally through tube at individual dosages of 0.2 mL/10 g of body weight. The negative control group was given distilled water of the equivalent volume through tube once a day for 30 days continuously. […] 4 hours before the mice were sacrificed they are given colchicine, and the bone marrow was extracted in order to prepare the chromosome samples in the routine way.
Samples from each group were observed. One hundred (100) metaphase cells per mouse were observed, and the chromosomal structures and the numbers of aberrations were recorded. Using SPSS for Windows 8.0 (t-test), a comparative analysis was made of the experimental data from the various dosage groups and the positive groups and tested to find out if there was any significant difference between the males and females within the group.

[5] = test system: bone marrow cells of mice
Protocol: Male NIH mice weighing 22-25 g, provided by the Guangdong Provincial Animal Center for Medical Experiments, were used. […] Each group contained 5 mice. Dosages were administered once a day for 3 consecutive days, orally via gavage.
Distilled water was then added to adjust the suspension to the required concentration. The compound was orally administered through gavage at 0.4 ml/10 g of body weight. […] Twenty four (24) hours after the last administration the animals were sacrificed by dislocation of the cervical vertebra. The femur was then removed, the muscle stripped away, and the bone marrow flushed out using phosphate buffer, centrifuged, fixed hyponotically and the chromosome sample is prepared using methods routine in the art. It was then stained for 10 min using 10% Giemsa's stain (pH 6.8).
Well dispersed Metaphase cells were selected for observation under the oil immersion lens. One hundred (100) metaphase cells were observed per animal, the number of cells with chromosomal aberrations noted, and the chromosomal aberration rate calculated. The data obtained were analyzed statistically calculated using SPSS for Windows 8.0 (t-test).

[6] = CP 40 mg/kg alone (positive group), F
[7] = CP 40 mg/kg alone (positive group), M
[8] = CP 50 mg/kg alone (positive group 4), F
[9] = CP 50 mg/kg alone (positive group 4), M
[10] = positive control: cyclophosphamide 40 mg/kg oral, single administration, 500 cells counted

CC(=O)Oc1ccccc1C(=O)O [Aspirin, aspirin]
Net Weight Gain ([1]; aspirin 250 mg/kg oral): 47.8 ± 13.9 g | Net weight gain vs negative control group ([1]; aspirin 250 mg/kg, p<0.05): significantly lower than that of the negative control group | Mean no. survivors per litter [2]: 4.0* | No. of litters with dead fetuses [2]: 5 | No. surviving fetus [2]: 56 | Number of hydrocephalic fetal rats [3]: 2

O=P1(N(CCCl)CCCl)NCCCO1 (stereo not shown) [CP, cyclophosphamide]
Abberant Cell Count [4, 6]: 118 | Abnormality Rate [4, 6]: 1.2 | Cell Aberration Rate % [4, 6]: 23.6% | No. of Abnormalities Polyploid [4, 6]: 5 | No. of Abnormalities hyperploid [4, 6]: 1 | No. of Abormal Cells [4, 6]: 6 | crb (chromatid break) [4, 6]: 95 | csb (chromosome break) [4, 6]: 28 | csg (chromosome gap) [4, 6]: 0 | ctg (chromatid gap) [4, 6]: 16 | del (nullisomic) [4, 6]: 50 | dmin (dimicrobody) [4, 6]: 0 | f (fragment) [4, 6]: 60 | r (ring chromosome) [4, 6]: 0 | tr (triradial) [4, 6]: 21 | Abberant Cell Count [4, 7]: 108 | Abnormality Rate [4, 7]: 1.8 | Cell Aberration Rate % [4, 7]: 21.6% | No. of Abnormalities Polyploid [4, 7]: 6 | No. of Abnormalities hyperploid [4, 7]: 1 | No. of Abormal Cells [4, 7]: 9 | crb (chromatid break) [4, 7]: 94 | csb (chromosome break) [4, 7]: 19 | csg (chromosome gap) [4, 7]: 0 | ctg (chromatid gap) [4, 7]: 18 | del (nullisomic) [4, 7]: 47 | dmin (dimicrobody) [4, 7]: 0 | f (fragment) [4, 7]: 62 | r (ring chromosome) [4, 7]: 0 | tr (triradial) [4, 7]: 15 | Abberant Cell Count [4, 8]: 221 | Abnormality Rate [4, 8]: 2.0 | No. of Abnormalities Polyploid [4, 8]: 5 | No. of Abnormalities hyperploid [4, 8]: 5 | No. of Abormal Cells [4, 8]: 10 | crb (chromatid break) [4, 8]: 185 | csb (chromosome break) [4, 8]: 21 | csg (chromosome gap) [4, 8]: 0 | ctg (chromatid gap) [4, 8]: 18 | del (nullisomic) [4, 8]: 103 | dmin (dimicrobody) [4, 8]: 0 | f (fragment) [4, 8]: 117 | r (ring chromosome) [4, 8]: 0 | tr (triradial) [4, 8]: 32 | Abberant Cell Count [4, 9]: 198 | Abnormality Rate [4, 9]: 2.2 | No. of Abnormalities Polyploid [4, 9]: 9 | No. of Abnormalities hyperploid [4, 9]: 2 | No. of Abormal Cells [4, 9]: 11 | crb (chromatid break) [4, 9]: 170 | csb (chromosome break) [4, 9]: 33 | csg (chromosome gap) [4, 9]: 0 | ctg (chromatid gap) [4, 9]: 18 | del (nullisomic) [4, 9]: 92 | dmin (dimicrobody) [4, 9]: 0 | f (fragment) [4, 9]: 100 | r (ring chromosome) [4, 9]: 1 | tr (triradial) [4, 9]: 29 | Chromosomal aberration rate vs negative control group ([5]; CP 40 mg/kg, p<0.01): noticeably higher than that of the negative control group | Chromosomal Aberration Rate (%) [5, 10]: 25.0* % | No. aberrant cells [5, 10]: 115 | Type and Number of Aberration: I (chromosomal fragmentation) [5, 10]: 35 | Type and Number of Aberration: b (chromosomal breakage) [5, 10]: b(48) | Type and Number of Aberration: f (chromosal fusion) [5, 10]: 59
